Assay results reported in patent US20260325533A1, “CDK INHIBITOR COMPOUNDS” (ALEKSIA THERAPEUTICS, INC., priority 2023, published 2026).
Where two headings read alike, the source gives them in different places.

Legend:
Type in all cases: biochemical
CDK1/CCNB1 = CDK1/CCNB1 (Homo sapiens, UniProt P06493); assay: CDK1 homogeneous time-resolved fluorescence (HTRF) kinase assay; details: CDK1/CCNB
In short: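 Read-out: TR-FRET (Eu anti-phospho-4E-BP1 Thr37/46 antibody, 2 nM; 665 nm or 665/615 ratio) after 60 min phosphorylation of 50 nM ULight-peptide by 0.5 nM CDK1/CCNB1 at 1 mM ATP, 23 °C. Compound preincubated 20 min with enzyme; 1% DMSO.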

CDK6/CCND1 = CDK6/CCND1 (Homo sapiens, UniProt Q00534); assay: CDK6 homogeneous time-resolved fluorescence (HTRF) kinase assay; details: CDK6/CCND
In short: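 Assay conditions: HEPES buffer containing 10 mM MgCl2, 1 mM EGTA, 2 mM DTT, 0.01% Tween 20; 1 nM CDK6/CCND1, 50 nM peptide substrate, 1 mM ATP. Detection after 60 min reaction used 2 nM europium antibody with 340 nm excitation. Potency fitted from half-log series, 11 points.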

CDK4/CCND3 = CDK4/CCND3 (Homo sapiens, UniProt P11802); assay: CDK4 homogeneous time-resolved fluorescence (HTRF) kinase assay; details: CDK4/CCND
In short: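 TR-FRET read (665 nm, or 665/615 ratio) of 4E-BP1 Thr37/46 phosphorylation by 1.5 nM CDK4/CCND3 at 1 mM ATP, 50 nM ULight peptide, 1% DMSO. Reaction ran 60 min at 23 °C after 20 min compound–enzyme preincubation. IC50 from 11-point half-log dilutions, top 10 μM.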

CDK2/CCNE1 = CDK2/CCNE1 (Homo sapiens, UniProt P24941); assay: CDK2 homogeneous time-resolved fluorescence (HTRF) kinase assay; details: CDK2/CCNE
In short: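 An HTRF format measures CDK2/CCNE1 (3 nM) phosphorylating a 4E-BP1 Thr37/46 peptide at high (1 mM) ATP. Reactions run one hour at 23 °C, then EDTA-quenched and probed with Eu-labelled phospho-specific antibody.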

[1] = x = IC50 >250 nM, read-out: CDK1/CCNB IC50 (>250 nM column)
[2] = x = IC50 >250 nM, read-out: CDK6/CCND IC50 (>250 nM column)
[3] = x = IC50 >250 nM, read-out: CDK4/CCND IC50 (>250 nM column)
[4] = x = IC50 <25 nM, read-out: CDK2/CCNE IC50 (<25 nM)
[5] = x = IC50 25-250 nM, read-out: CDK6/CCND IC50 (25-250 nM)
[6] = x = IC50 25-250 nM, read-out: CDK1/CCNB IC50 (25-250 nM)
[7] = x = IC50 25-250 nM, read-out: CDK4/CCND IC50 (25-250 nM)
[8] = x = IC50 25-250 nM, read-out: CDK2/CCNE IC50 (25-250 nM)

Sequence of CDK6/CCND1 (Q00534 whole entry): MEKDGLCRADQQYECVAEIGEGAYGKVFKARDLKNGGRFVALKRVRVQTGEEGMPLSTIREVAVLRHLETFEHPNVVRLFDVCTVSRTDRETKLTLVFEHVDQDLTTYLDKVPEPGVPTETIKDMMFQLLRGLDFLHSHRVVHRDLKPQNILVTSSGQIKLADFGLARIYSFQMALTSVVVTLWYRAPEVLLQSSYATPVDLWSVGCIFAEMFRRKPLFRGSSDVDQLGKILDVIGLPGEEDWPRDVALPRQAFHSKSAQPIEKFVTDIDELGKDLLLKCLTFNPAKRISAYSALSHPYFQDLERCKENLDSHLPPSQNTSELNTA
Sequence of CDK6/CCND1 (P24385 whole entry partner): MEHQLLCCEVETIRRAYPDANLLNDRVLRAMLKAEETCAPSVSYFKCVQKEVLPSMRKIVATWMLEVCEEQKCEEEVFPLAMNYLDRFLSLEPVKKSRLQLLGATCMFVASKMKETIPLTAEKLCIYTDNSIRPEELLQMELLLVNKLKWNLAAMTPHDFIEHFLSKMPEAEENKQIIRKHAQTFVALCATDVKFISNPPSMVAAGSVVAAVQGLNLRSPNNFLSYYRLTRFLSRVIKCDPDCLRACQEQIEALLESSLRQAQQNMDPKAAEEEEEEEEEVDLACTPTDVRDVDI
Sequence of CDK1/CCNB1 (P06493 whole entry): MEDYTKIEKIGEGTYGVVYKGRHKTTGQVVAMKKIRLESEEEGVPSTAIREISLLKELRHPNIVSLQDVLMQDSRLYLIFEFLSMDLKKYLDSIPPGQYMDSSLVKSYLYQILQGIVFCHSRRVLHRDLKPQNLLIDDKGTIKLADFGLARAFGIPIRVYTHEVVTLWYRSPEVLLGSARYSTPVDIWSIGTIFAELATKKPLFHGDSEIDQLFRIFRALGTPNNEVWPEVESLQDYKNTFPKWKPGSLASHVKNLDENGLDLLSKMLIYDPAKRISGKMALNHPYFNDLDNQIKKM
Sequence of CDK1/CCNB1 (P14635 whole entry partner): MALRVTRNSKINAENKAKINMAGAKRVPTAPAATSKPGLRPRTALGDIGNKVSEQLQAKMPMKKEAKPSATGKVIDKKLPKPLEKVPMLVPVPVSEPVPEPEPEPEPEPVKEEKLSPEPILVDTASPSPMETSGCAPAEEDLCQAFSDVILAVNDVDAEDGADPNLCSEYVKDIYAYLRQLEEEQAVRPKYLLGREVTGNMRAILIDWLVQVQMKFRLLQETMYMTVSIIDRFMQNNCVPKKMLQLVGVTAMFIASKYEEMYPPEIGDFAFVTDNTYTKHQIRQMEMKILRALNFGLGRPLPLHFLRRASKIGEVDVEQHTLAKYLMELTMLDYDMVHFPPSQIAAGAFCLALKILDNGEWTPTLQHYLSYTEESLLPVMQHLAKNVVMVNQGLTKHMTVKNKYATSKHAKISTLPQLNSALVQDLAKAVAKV
Sequence of CDK4/CCND3 (P11802 whole entry): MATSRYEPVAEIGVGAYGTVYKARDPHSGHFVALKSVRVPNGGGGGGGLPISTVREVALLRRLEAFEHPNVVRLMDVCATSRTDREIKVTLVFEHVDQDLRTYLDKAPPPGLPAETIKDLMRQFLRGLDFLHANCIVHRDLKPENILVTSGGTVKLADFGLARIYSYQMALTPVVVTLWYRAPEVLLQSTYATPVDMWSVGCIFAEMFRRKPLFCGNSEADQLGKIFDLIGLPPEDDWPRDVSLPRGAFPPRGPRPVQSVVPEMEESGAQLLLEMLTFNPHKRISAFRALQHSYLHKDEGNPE
Sequence of CDK4/CCND3 (P30281 whole entry partner): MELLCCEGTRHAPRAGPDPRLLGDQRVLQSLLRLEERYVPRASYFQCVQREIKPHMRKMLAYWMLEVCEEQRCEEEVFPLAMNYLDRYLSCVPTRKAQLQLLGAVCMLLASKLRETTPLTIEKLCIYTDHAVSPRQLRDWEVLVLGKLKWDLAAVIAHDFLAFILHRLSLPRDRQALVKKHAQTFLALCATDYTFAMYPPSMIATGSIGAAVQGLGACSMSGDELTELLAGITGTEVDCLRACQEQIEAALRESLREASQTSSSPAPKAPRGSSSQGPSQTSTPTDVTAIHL

IC50 (CDK1/CCNB1; [1]) [nM] | IC50 (CDK6/CCND1; [2]) [nM] | IC50 (CDK4/CCND3; [3]) [nM] | IC50 (CDK2/CCNE1; [4]) [nM] | IC50 (CDK1/CCNB1; x = IC50 <25 nM, read-out: CDK1/CCNB IC50 (<25 nM)) [nM] | IC50 (CDK6/CCND1; [5]) [nM] | IC50 (CDK4/CCND3; x = IC50 <25 nM, read-out: CDK4/CCND IC50 (<25 nM)) [nM] | IC50 (CDK1/CCNB1; [6]) [nM] | IC50 (CDK4/CCND3; [7]) [nM] | IC50 (CDK2/CCNE1; [8]) [nM] | IC50 (CDK2/CCNE1; x = IC50 >250 nM, read-out: CDK2/CCNE IC50 (>250 nM column)) [nM] | Compound
> 250 | > 250 | > 250 | < 25 | – | – | – | – | – | – | – | CC(C)NS(=O)(=O)c1ccc(Nc2cc3c(C#Cc4cccnc4N)nccc3cn2)cc1 [Example 421, 4-((5-((2-aminopyridin-3-yl)ethynyl)-2,6-naphthyridin-3-yl)amino)-N-isopropylbenzenesulfonamide]
> 250 | > 250 | > 250 | < 25 | – | – | – | – | – | – | – | CC1(C)C(=O)Nc2cc(C#Cc3nccc4cnc(Nc5ccc(S(C)(=O)=O)cc5)cc34)cnc21 [Example 436, 3,3-dimethyl-6-((7-((4-(methylsulfonyl)phenyl)amino)-2,6-naphthyridin-1-yl)ethynyl)-1,3-dihydro-2H-pyrrolo[3,2-b]pyridin-2-one]
– | – | – | < 25 | < 25 | 25 to 250 | < 25 | – | – | – | – | CN1CCC(NS(=O)(=O)c2ccc(Nc3cc4c(C#Cc5ccc6c(c5)NC(=O)C6(C)C)nccc4cn3)cc2)CC1 [Example 441, 4-((5-((3,3-dimethyl-2-oxoindolin-6-yl)ethynyl)-2,6-naphthyridin-3-yl)amino)-N-(1-methylpiperidin-4-yl)benzenesulfonamide]
– | > 250 | – | < 25 | – | – | – | 25 to 250 | 25 to 250 | – | – | CC1(C)C(=O)Nc2cc(C#Cc3nccc4cnc(Nc5ccc(S(C)(=O)=O)cc5)cc34)c(F)cc21 [Example 446, 5-fluoro-3,3-dimethyl-6-((7-((4-(methylsulfonyl)phenyl)amino)-2,6-naphthyridin-1-yl)ethynyl)indolin-2-one]
– | > 250 | > 250 | < 25 | – | – | – | 25 to 250 | – | – | – | CNS(=O)(=O)c1ccc(Nc2cc3c(C#Cc4cccnc4N)nccc3cn2)c(C)c1 [Example 449, 4-((5-((2-aminopyridin-3-yl)ethynyl)-2,6-naphthyridin-3-yl)amino)-N,3-dimethylbenzenesulfonamide]
> 250 | > 250 | > 250 | < 25 | – | – | – | – | – | – | – | Nc1ncccc1C#Cc1nccc2cnc(Nc3ccc(S(=O)(=O)Nc4nccc(N5CCOCC5)n4)cc3)cc12 [Example 464, 4-((5-((2-aminopyridin-3-yl)ethynyl)-2,6-naphthyridin-3-yl)amino)-N-(4-morpholinopyrimidin-2-yl)benzenesulfonamide]
> 250 | > 250 | > 250 | – | – | – | – | – | – | 25 to 250 | – | Nc1ncccc1C#Cc1nccc2cnc(Nc3cnc(O)c(N4CCNCC4)c3)cc12 [Example 465, 5-((5-((2-aminopyridin-3-yl)ethynyl)-2,6-naphthyridin-3-yl)amino)-3-(piperazin-1-yl)pyridin-2-ol]
– | > 250 | > 250 | < 25 | – | – | – | 25 to 250 | – | – | – | Cc1cc(C)nc(NS(=O)(=O)c2ccc(Nc3cc4c(C#Cc5cccnc5N)nccc4cn3)cc2)n1 [Example 471, 4-((5-((2-aminopyridin-3-yl)ethynyl)-2,6-naphthyridin-3-yl)amino)-N-(4,6-dimethylpyrimidin-2-yl)benzenesulfonamide]
> 250 | > 250 | > 250 | < 25 | – | – | – | – | – | – | – | Cc1c(C#Cc2nccc3cnc(Nc4ccc(S(C)(=O)=O)cc4)cc23)ccc2oc(=O)[nH]c12 [Example 472, 4-Methyl-5-((7-((4-(methylsulfonyl)phenyl)amino)-2,6-naphthyridin-1-yl)ethynyl)benzo[d]oxazol-2(3H)-one]
– | > 250 | > 250 | < 25 | – | – | – | 25 to 250 | – | – | – | Nc1ncccc1C#Cc1nccc2cnc(Nc3ccc(S(N)(=O)=O)cc3)cc12 [Example 475, 4-((5-((2-aminopyridin-3-yl)ethynyl)-2,6-naphthyridin-3-yl)amino)benzenesulfonamide]
> 250 | > 250 | > 250 | – | – | – | – | – | – | 25 to 250 | – | CS(=O)(=O)c1ccc(Nc2cc3c(C#Cc4ccc5[nH]c(=O)oc5c4)nccc3cn2)cc1 [Example 476, 6-((7-((4-(methylsulfonyl)phenyl)amino)-2,6-naphthyridin-1-yl)ethynyl)benzo[d]oxazol-2(3H)-one]
> 250 | – | – | < 25 | – | 25 to 250 | – | – | 25 to 250 | – | – | Cc1c(-c2nccc3cnc(Nc4ccc(S(C)(=N)=O)cc4)cc23)ccc2c1cnn2CC(O)(C(F)(F)F)C(F)(F)F (stereo not drawn) [Example 482, Imino(methyl)(4-((5-(4-methyl-1-(3,3,3-trifluoro-2-hydroxy-2-(trifluoromethyl)propyl)-1H-indazol-5-yl)-2,6-naphthyridin-3-yl)amino)phenyl)-λ^6-sulfanone]
> 250 | > 250 | > 250 | – | – | – | – | – | – | 25 to 250 | – | CS(=O)(=O)c1ccc(Nc2cc3c(C#Cc4ccc(NC(=O)C5CC5)cc4)nccc3cn2)cc1 [Example 487, N-(4-((7-((4-(methylsulfonyl)phenyl)amino)-2,6-naphthyridin-1-yl)ethynyl)phenyl)cyclopropanecarboxamide]
> 250 | – | – | < 25 | – | 25 to 250 | – | – | 25 to 250 | – | – | C[C@@H](C#Cc1nccc2cnc(Nc3ccc(S(C)(=O)=O)cc3)cc12)CO [Example 488, (S)-2-methyl-4-(7-((4-(methylsulfonyl)phenyl)amino)-2,6-naphthyridin-1-yl)but-3-yn-1-ol]
> 250 | > 250 | > 250 | – | – | – | – | – | – | 25 to 250 | – | CS(=N)(=O)c1ccc(Nc2cc3c(C#Cc4cccnc4N)nccc3cn2)cc1 (stereo not drawn) [Example 490, (4-((5-((2-aminopyridin-3-yl)ethynyl)-2,6-naphthyridin-3-yl)amino)phenyl)(imino)(methyl)-λ^6-sulfanone]
> 250 | > 250 | > 250 | – | – | – | – | – | – | 25 to 250 | – | COC(=O)CCc1ccc(C#Cc2nccc3cnc(Nc4ccc(S(C)(=O)=O)cc4)cc23)cc1 [Example 493, methyl 3-(4-((7-((4-(methylsulfonyl)phenyl)amino)-2,6-naphthyridin-1-yl)ethynyl)phenyl)propanoate]
> 250 | > 250 | > 250 | < 25 | – | – | – | – | – | – | – | CS(=O)(=O)c1ccc(Nc2cc3c(C#Cc4ccc(CCC(=O)O)cc4)nccc3cn2)cc1 [Example 494, 3-(4-((7-((4-(methylsulfonyl)phenyl)amino)-2,6-naphthyridin-1-yl)ethynyl)phenyl)propanoic acid]
> 250 | > 250 | > 250 | – | – | – | – | – | – | 25 to 250 | – | CS(=O)(=O)c1ccc(Nc2cc3c(C#Cc4n[nH]c(=O)c5ccccc45)nccc3cn2)cc1 [Example 495, 4-((7-((4-(methylsulfonyl)phenyl)amino)-2,6-naphthyridin-1-yl)ethynyl) phthalazin-1(2H)-one]
> 250 | > 250 | > 250 | < 25 | – | – | – | – | – | – | – | CS(=O)(=O)c1ccc(Nc2cc3c(C#Cc4n[nH]c5cnccc45)nccc3cn2)cc1 [Example 496, 5-((1H-pyrazolo[3,4-c]pyridin-3-yl)ethynyl)-N-(4-(methylsulfonyl)phenyl)-2,6-naphthyridin-3-amine]
> 250 | > 250 | > 250 | < 25 | – | – | – | – | – | – | – | CS(=O)(=O)c1ccc(Nc2cc3c(C#Cc4c(N)ncnc4Cl)nccc3cn2)cc1 [Example 510, 5-((4-amino-6-chloropyrimidin-5-yl)ethynyl)-N-(4-(methylsulfonyl)phenyl)-2,6-naphthyridin-3-amine]
> 250 | > 250 | > 250 | – | – | – | – | – | – | – | > 250 | COc1cnc(C#Cc2nccc3cnc(Nc4ccc(S(C)(=O)=O)cc4)cc23)nc1 [Example 513, 5-((5-methoxypyrimidin-2-yl)ethynyl)-N-(4-(methylsulfonyl)phenyl)-2,6-naphthyridin-3-amine]
